Assay type in all cases: in vitro ADME
One series has as its target T1, CYP3A4 (Homo sapiens, UniProt P08684).
T1 construct: containing HLM (0.2 mg/mL), phosphate buffer (100 mM, pH 7.4); from tissue; host or cells: liver microsomes (HLM)
In words: CYP liver enzyme inhibition experiment, CYP-3A4. Particulars: human liver microsomes, pH 7.4, probe midazolam, test compound 10 μM, HLM, midazolam 1 μM, read-out: CYP-3A4 Inhibitory rate (%). As to the method:
(§1) The five major CYP isozymes and their respective probe substrates were: CYP-1A2 (phenacetin, 30 μM), CYP-2C9 (toluenesulfonylurea, 100 μM), CYP-2C19 40 μM), CYP-2D6 (dextromethorphan, 5 μM) and CYP-3A4 (midazolam, 1 μM). All probes were used close to or below their KMS concentrations. The mixture (200 μL) was incubated in a 37° C. constant temperature water bath, containing HLM (0.2 mg/mL), phosphate buffer (100 mM, pH 7.4), NADPH […], test compound (10 μM) and the respective CYP probe substrate. Before the reaction with NADPH, the mixture was pre-incubated for 10 minutes to undergo inhibitor-enzyme interaction. After a specific period of time (10 minutes for CYP-1A2, 2D6 and 3A4; 30 minutes for CYP-2C9 and 2C19), the reaction was quenched by addition to 100 μL solution of appropriate amount of cold acetonitrile. Reaction system was centrifuged and injected into the LC-MS/MS to quantify the concentration of specific metabolite formed from the substrate and the CYP enzyme. Each test compound was tested at least three times independently. […]
(§2) Before the start of the reaction with NADPH, the above mixture can be pre-incubated for about 10 minutes to allow inhibitor-enzyme interactions. […] The quenched mixture can be centrifuged, and aliquots of the mixture can then be analyzed by LC-MS/MS to quantify the concentrations of specific metabolic products for each CYP isozyme. […]
Background: Liver microsomes are a subcellular fraction often used to study metabolism.

The target in the next series is T2, CYP2C9 (Homo sapiens, UniProt P11712).
T2 construct: containing HLM (0.2 mg/mL), phosphate buffer (100 mM, pH 7.4); from tissue; host or cells: liver microsomes (HLM)
In words: CYP liver enzyme inhibition experiment, CYP-2C9. Particulars: human liver microsomes. As to the method:
The five major CYP isozymes and their respective probe substrates were: CYP-1A2 (phenacetin, 30 μM), CYP-2C9 (toluenesulfonylurea, 100 μM), CYP-2C19 40 μM), CYP-2D6 (dextromethorphan, 5 μM) and CYP-3A4 (midazolam, 1 μM). All probes were used close to or below their KMS concentrations. The mixture (200 μL) was incubated in a 37° C. constant temperature water bath, containing HLM (0.2 mg/mL), phosphate buffer (100 mM, pH 7.4), NADPH […], test compound (10 μM) and the respective CYP probe substrate. Before the reaction with NADPH, the mixture was pre-incubated for 10 minutes to undergo inhibitor-enzyme interaction. After a specific period of time (10 minutes for CYP-1A2, 2D6 and 3A4; 30 minutes for CYP-2C9 and 2C19), the reaction was quenched by addition to 100 μL solution of appropriate amount of cold acetonitrile. Reaction system was centrifuged and injected into the LC-MS/MS to quantify the concentration of specific metabolite formed from the substrate and the CYP enzyme. Each test compound was tested at least three times independently.
Five major CYP isozymes and their corresponding substrates are: CYP-1A2 (phenacetin, 30 μM), […], CYP2C19 (S-mephenytoin, 40 μM), CYP2D6 (dextromethorphan, 5 μM), and CYP3A4 (midazolam, 1 μM), respectively. All probe substrates were used at or lower than their KMS concentrations.
A mixture (200 μL) can be incubated at 37° C. This mixture can comprise HLM (0.2 mg/mL), phosphate buffer (100 mM, pH at about 7.4), nicotinamide adenine dinucleotide phosphate (NADPH) […], a testing compound (compound B or compound B1), and the individual substrate for the CYP isozyme tested.
Before the start of the reaction with NADPH, the above mixture can be pre-incubated for about 10 minutes to allow inhibitor-enzyme interactions. Then at specific time points (10 minutes time point for CYP-1A2, 2D6 and 3A4; 30 minutes time point for CYP-2C9 and 2C19), the reaction can be quenched by the addition of about 100 μL cold acetonitrile. The quenched mixture can be centrifuged, and aliquots of the mixture can then be analyzed by LC-MS/MS to quantify the concentrations of specific metabolic products for each CYP isozyme. For each testing compound, at least three independent assays can be completed.

In a further series the target is T3, CYP1A2 (Homo sapiens, UniProt P05177).
T3 construct: containing HLM (0.2 mg/mL), phosphate buffer (100 mM, pH 7.4); from tissue; host or cells: liver microsomes (HLM)
T3 sequence (P05177 1-516): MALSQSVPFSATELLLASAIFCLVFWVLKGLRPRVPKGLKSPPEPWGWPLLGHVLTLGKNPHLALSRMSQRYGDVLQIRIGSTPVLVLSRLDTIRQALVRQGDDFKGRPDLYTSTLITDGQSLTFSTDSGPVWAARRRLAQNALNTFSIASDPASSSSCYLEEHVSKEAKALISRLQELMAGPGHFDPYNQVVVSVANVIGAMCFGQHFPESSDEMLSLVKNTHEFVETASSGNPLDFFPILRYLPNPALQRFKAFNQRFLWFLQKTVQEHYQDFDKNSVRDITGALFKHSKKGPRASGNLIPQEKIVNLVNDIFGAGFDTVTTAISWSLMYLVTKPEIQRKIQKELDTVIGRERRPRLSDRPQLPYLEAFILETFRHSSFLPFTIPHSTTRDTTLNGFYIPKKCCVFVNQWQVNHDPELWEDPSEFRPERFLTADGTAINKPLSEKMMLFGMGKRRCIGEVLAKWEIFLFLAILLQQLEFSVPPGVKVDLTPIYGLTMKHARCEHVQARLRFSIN
In words: CYP liver enzyme inhibition experiment, CYP-1A2. Particulars: human liver microsomes, pH 7.4, probe phenacetin, test compound 10 μM, HLM, phenacetin 30 μM, read-out: CYP-1A2 Inhibitory rate (%). As to the method: as §1, §2

A further series concerns the target T4, CYP2C19 (Homo sapiens, UniProt P33261).
T4 construct: containing HLM (0.2 mg/mL), phosphate buffer (100 mM, pH 7.4); from tissue; host or cells: liver microsomes (HLM)
Briefly: CYP liver enzyme inhibition experiment, CYP-2C19. Particulars: human liver microsomes, pH 7.4, probe S-mephenytoin, 40 µM, test compound 10 μM, HLM, read-out: CYP-2C19 Inhibitory rate (%). As to the method: as §1, §2

Where [1] appears, read: pH 7.4, probe tolbutamide (tolbutamide hydroxylation), Table 6, HLM, read-out: CYP-2C9 Inhibition (%).
Where [2] appears, read: pH 7.4, probe toluenesulfonylurea (tolbutamide), 100 µM, at 10 μM, read-out: inhibitory activity against CYP-2C9.
Where [3] appears, read: pH 7.4, probe toluenesulfonylurea (tolbutamide), 100 µM, at a concentration of 10M, read-out: inhibitory rate to CYP-2C9.
Setting [4] is: pH 7.4, probe toluenesulfonylurea (tolbutamide), 100 µM, test compound 10 μM, HLM, read-out: CYP-2C9 Inhibitory rate (%).

Read-outs that look alike come from different tables or passages of the source.

We go through 2 compounds from patent US10919889B2, “Chiral heterocyclic compound with hedgehog pathway antagonist activity, method and use thereof” (SUZHOU KINTOR PHARMACEUTICALS, INC., priority 2016, dated 2021).

T2 sequence (P11712 whole entry): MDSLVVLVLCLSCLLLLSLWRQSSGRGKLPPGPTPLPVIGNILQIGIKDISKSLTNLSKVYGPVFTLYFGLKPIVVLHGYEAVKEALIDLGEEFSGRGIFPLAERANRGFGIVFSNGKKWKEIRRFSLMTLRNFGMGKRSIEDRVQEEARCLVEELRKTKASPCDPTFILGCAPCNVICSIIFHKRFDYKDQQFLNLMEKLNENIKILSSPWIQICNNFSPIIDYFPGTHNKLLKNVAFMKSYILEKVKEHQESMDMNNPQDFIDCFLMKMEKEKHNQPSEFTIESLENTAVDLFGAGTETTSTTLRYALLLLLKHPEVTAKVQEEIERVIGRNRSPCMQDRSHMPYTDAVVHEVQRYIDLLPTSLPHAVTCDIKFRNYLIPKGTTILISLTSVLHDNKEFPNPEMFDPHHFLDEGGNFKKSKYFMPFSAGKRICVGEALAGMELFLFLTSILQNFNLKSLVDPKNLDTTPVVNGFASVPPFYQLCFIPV
T1 sequence (P08684 whole entry): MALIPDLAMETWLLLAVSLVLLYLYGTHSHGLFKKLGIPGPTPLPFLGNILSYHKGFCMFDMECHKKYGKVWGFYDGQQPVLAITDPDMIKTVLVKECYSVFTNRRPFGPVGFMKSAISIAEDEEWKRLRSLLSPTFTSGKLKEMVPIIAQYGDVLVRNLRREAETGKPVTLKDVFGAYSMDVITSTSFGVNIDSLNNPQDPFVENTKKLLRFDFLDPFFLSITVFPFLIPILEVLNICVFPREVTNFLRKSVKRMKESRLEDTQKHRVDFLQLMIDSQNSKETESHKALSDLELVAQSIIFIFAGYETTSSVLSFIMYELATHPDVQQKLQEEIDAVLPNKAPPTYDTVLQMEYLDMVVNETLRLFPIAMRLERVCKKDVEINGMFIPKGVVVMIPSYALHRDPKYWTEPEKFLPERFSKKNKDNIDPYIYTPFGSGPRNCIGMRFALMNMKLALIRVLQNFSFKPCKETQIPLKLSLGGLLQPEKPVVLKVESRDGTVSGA
T4 sequence (P33261 whole entry): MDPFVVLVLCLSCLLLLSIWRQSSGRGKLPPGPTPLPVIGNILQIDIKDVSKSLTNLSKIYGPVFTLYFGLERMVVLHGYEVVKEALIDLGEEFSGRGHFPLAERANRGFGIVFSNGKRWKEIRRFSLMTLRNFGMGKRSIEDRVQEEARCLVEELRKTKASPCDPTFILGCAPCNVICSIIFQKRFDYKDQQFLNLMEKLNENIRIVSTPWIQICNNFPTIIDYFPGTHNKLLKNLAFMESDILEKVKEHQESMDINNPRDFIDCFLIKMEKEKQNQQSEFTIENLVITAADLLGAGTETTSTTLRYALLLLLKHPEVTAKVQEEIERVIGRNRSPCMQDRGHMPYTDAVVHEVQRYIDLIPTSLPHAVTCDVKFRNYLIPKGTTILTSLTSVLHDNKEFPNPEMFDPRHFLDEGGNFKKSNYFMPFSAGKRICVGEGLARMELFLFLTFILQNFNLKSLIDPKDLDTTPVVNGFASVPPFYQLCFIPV

As for `Cc1cnc(-c2cc(N3CCc4nc(N5CCC(O)CC5)ncc4C3C)ncc2Cl)c(C)c1` (racemic) [B], the figures for the inhibition at 10 min, 10 µM at CYP3A4 and at CYP1A2 were 21 ± 4% and 21 ± 1.3%, respectively. Moreover, the inhibition at 30 min, 10 µM on CYP2C9 (setting [1]) was 52 ± 5.2%; on CYP2C9 (setting [2]), roughly 52%; on CYP2C9 (setting [3]), greater than 50%; on CYP2C9 (setting [4]), 52 ± 5.2%; on CYP2C19, 44 ± 3.3%.
Regarding `Cc1cnc(-c2cc(N3CCc4nc(N5CCC(O)CC5)ncc4[C@H]3C)ncc2Cl)c(C)c1` [Compound B1, (R)-1-(6-(5′-chloro-3,5-dimethyl-[2,4′-bipyridin]-2′-yl)-5-methyl-5,6,7,8-tetrahydropyrido[4,3-d]pyrimidin-2-yl)piperidin-4-ol], the results for the inhibition at 10 min, 10 µM on CYP3A4 and at CYP1A2 were 20 ± 5.9% and 22 ± 15%, respectively. The inhibition at 30 min, 10 µM at CYP2C9 (setting [1]) is 26 ± 6%; at CYP2C9 (setting [2]), roughly 26%; on CYP2C9 (setting [3]), 26%; at CYP2C9 (setting [4]), 26 ± 6%; at CYP2C19 it was 43 ± 2.6%.
